Test results as given in EP4631931A1, “HDAC INHIBITOR AND USE THEREOF” (Wigen Biomedicine Technology (Shanghai) Co., Ltd., priority 2022, dated 2024).

Tests used:
[1] = tested on: Jurkat cell; assay: Inhibition of Jurkat cell proliferation (CTG, intracellular ATP); assay type: cell-based; conditions: Homo sapiens, 72 h, compared to DMSO group, read-out: Inhibitory activity against Jurkat cell proliferation (IC50)
Description: (§1) Jurkat or 293T cells were seeded into a 96-well plate at 3000 cells/well. After overnight adherence culture, the serially diluted compound in DMSO was added. After 72 h, the intracellular ATP level was determined by CTG. The IC50 for the inhibition of cell proliferation by the compounds was calculated compared to the DMSO group. Table 8. Inhibitory activity of compounds of the present disclosure against Jurkat/293T cell proliferation (IC50, µM)

[2] = tested on: 293T cell; assay: Inhibition of 293T cell proliferation (CTG, intracellular ATP); assay type: cell-based; conditions: Homo sapiens, HEK-293T, 72 h, compared to DMSO group, read-out: Inhibitory activity against 293T cell proliferation (IC50)
Description: as §1

[3] = biological target: T1, HDAC10 (Homo sapiens, UniProt Q969S8); assay: HDAC enzyme inhibition, fluorometric assay; assay type: biochemical; conditions: read-out: Inhibitory activity against HDAC10 (IC50)
T1 sequence (Q969S8 1-669): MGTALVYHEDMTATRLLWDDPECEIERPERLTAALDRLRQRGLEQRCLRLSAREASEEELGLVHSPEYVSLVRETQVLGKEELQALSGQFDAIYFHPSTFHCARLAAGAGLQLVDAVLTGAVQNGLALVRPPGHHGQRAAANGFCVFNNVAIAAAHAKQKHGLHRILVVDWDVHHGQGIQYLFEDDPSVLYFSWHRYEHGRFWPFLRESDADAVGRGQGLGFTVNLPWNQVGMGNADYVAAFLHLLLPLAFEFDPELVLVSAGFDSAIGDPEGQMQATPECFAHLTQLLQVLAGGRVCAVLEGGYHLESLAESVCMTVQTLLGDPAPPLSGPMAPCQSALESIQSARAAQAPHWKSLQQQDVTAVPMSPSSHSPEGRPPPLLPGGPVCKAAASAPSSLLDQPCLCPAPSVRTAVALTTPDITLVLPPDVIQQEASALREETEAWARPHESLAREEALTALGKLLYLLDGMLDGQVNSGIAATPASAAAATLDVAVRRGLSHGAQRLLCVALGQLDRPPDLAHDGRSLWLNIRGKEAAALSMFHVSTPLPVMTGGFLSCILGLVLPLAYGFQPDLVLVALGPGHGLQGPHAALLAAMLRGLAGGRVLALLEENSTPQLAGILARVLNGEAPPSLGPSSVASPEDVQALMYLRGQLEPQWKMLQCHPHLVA
Description: Serially diluted DMSO sample solutions were added to the reaction wells, enzymes were added to a 384-well plate, and a reaction buffer was added to the control wells. The plate was incubated at room temperature for 15 min. After the fluorogenic substrate solution was added, the reaction was started. Fluorescence intensity readings (excitation: 355 nm, emission: 460 nm) were recorded every minute for 60 min using a Paradigm detector, and the slope values were calculated. Inhibition rate (%) = (maximum value - sample value)/(maximum value - minimum value) × 100%. The IC50 values were obtained by fitting a curve using the equation: Y = Bottom + (Top - Bottom)/(1 + (IC50/X)^HillSlope), where Y represents the inhibition rate and X represents the concentration of the compound. Table 10. Inhibitory activity of compound of the present disclosure against HDAC1, HDAC2, HDAC3, and HDAC10 (IC50, nM)

[4] = Stability in liver microsomes; assay type: in vitro ADME; conditions: 1 µM compound, NADPH, 37 °C
Description: After the 1 µM compound was incubated with 0.5 mg/mL of human or mouse liver microsomes and an NADPH regeneration system at 37 °C for different times, respectively, LC-MS-MS was used to analyze the remaining amount of the compound and calculate T1/2. Table 12. Evaluation results of stability of compounds of the present disclosure in human and mouse liver microsomes

[5] = Pharmacokinetic experiment in mice; assay type: in vivo, CD-1 female mice; conditions: female, CD-1, mouse, plasma; for Vd: read-out: Vdss
Description: CD-1 female mice aged 7 to 10 weeks were intravenously administered and orally administered at doses of 1 mg/kg and 10 mg/kg, respectively. The mice were fasted for at least 12 h before the administration and given food 4 h after the administration, and they were given ad libitum access to water during the experiment.
On the day of the experiment, animals in the intravenous group were given the corresponding compound by single injection via the tail vein at an administration volume of 10 mL/kg; and animals in the oral group were given the corresponding compound by single intragastric injection at an administration volume of 10 mL/kg. The animals were weighed before administration, and the administration volume was calculated according to the body weight. The sample collection time points were 0.083 h, 0.167 h, 0.5 h, 1 h, 2 h, 4 h, 8 h, and 24 h. About 200 µL of whole blood was collected through the orbital venous plexus at each time point and used to prepare plasma for concentration determination by high-performance liquid chromatography-tandem mass spectrometry (LC-MS/MS). The plasma concentrations were processed using a non-compartmental model of Winnolin pharmacokinetic software, and the pharmacokinetic parameters were calculated using a linear-log trapezoidal method. Table 13. Results of in vivo pharmacokinetic evaluation of compounds of the present disclosure

[6] = tested on: Mouse colon cancer CT-26 cells; assay: In vivo efficacy in CT-26 model; design: species or system BALB/c mice; conditions: small molecules 15mg/kg PO QD, PD-1 1mg/kg IV QW, BDO 2mg/kg IP QW, 21 days; for TGI(%): 6 mice per group
Description: Female BALB/c mice (aged 6 weeks, 18-22 g) were provided by Vital River Laboratory Animal Technology Co., Ltd. (China) and used one week after quarantine and acclimation. All animals were kept in a room at 23±2 °C with a relative humidity of 50±5%, artificial lighting was provided from 08:00 to 20:00 every day, and the air was exchanged 13-18 times per hour. Mouse colon cancer CT-26 cells were cultured conventionally in 1640 medium containing 10% fetal bovine serum in an incubator at 37 °C with 5% CO2. After being subcultured, the cells were collected when they reached the desired amount. The BALB/c mice were subcutaneously injected with 2 × 10^5 CT-26 cells on the right side to form tumors. After the tumors grew to about 100 mm^3, the animals were randomly grouped for administration. Tumor volumes were measured with a caliper on day 3, day 7, day 10, day 14, day 17, and day 21 after the administration. […] The toxicity of the compounds was evaluated according to the body weight and state of the mice.
Table 16. In vivo efficacy of some of the compounds of the present disclosure in CT-26 model

[7] = Human liver microsomes 0.5 mg/mL
[8] = Mouse liver microsomes 0.5 mg/mL
[9] = Injection (1 mg/kg), intravenous

Structure (SMILES) | IC50 [1] | IC50 [2] | IC50 [3] | CLint scaled at 1 µM [4, 7] | Clliver [4, 7] | half-life at 1 µM [4, 7] | CLint scaled at 1 µM [4, 8] | Clliver [4, 8] | half-life at 1 µM [4, 8] | AUC(0-t) [5, 9] | clearance [5, 9] | half-life [5, 9] | Vd [5, 9] | AUC(0-t) ([5]; Oral administration (10 mg/kg)) | Cmax ([5]; Oral administration (10 mg/kg)) | Tmax ([5]; Oral administration (10 mg/kg)) | bioavailability ([5]; Oral administration (10 mg/kg)) | half-life ([5]; Oral administration (10 mg/kg)) | Change in body weight [6] | TGI(%) [6]
[2H]c1cc(C(=O)Nc2ccc(F)cc2N)ccc1CNC(=O)/C=C/c1cccnc1 [Compound 5, (E)-N-(2-amino-4-fluorophenyl)-4-((3-(pyridin-3-yl)acrylamido)methyl)-3-d benzamide] | 590 nM | > 10000 nM | 127 nM | 7.95 mL/min/kg | 5.74 mL/min/kg | 3.64 h | 231 mL/min/kg | 64.79 mL/min/kg | 0.393 h | 453 ng·h/mL | 36.8 mL/min/kg | 1.28 h | 1.13 L/kg | 2360 ng·h/mL | 1330 ng/mL | 0.17 h | 52% | 3.13 h | +24.2% | 12.2%
Nc1cc(F)ccc1NC(=O)c1ccc(CNC(=O)/C=C/c2cccnc2)cc1 [Chidamide, reference compound] | 1620 nM | 6710 nM | 318 nM | 20.9 mL/min/kg | 10.41 mL/min/kg | 1.38 h | 222 mL/min/kg | 64.04 mL/min/kg | 0.41 h | 539 ng·h/mL | 33.9 mL/min/kg | 2.03 h | 1.55 L/kg | 2490 ng·h/mL | 3750 ng/mL | 0.17 h | 46.1% | 3.51 h | +21.1% | 8.9%
